Laboratory results published in patent EP4578449A1, “PHARMACEUTICAL COMBINATION OF FAK INHIBITOR AND MICROTUBULE INHIBITOR AND USE THEREOF” (Inxmed (Nanjing) Co., Ltd., priority 2022, dated 2024).

Tests used:
colon cancer CT26 cells = test: IN10018 and Docetaxel: microscopy and CRT/Annexin-V/PI flow cytometry; format: cell-based, mouse; details: 48 hours, IN10018 5 µM, Docetaxel 0.1 µM, alone or combined
Procedure: CT26 cells (Institute of Cell Biology, Chinese Academy of Sciences) were cultured with RPMI-1640 (Shanghai Basalmedia, catalog number: L210KJ, batch number: F210916) + 10% FBS (Gibco, catalog number: 10099-141c, batch number: 2158737cp), and passaged twice. When the cells were in good condition, they were placed in a 24-well plate. After 24 hours of cell spreading, four groups were set up. The first group was the control group, in which culture medium was added; the second group was IN10018 at a concentration of 5µM; the third group was Docetaxel (MCE, classification number: HY-B0011, batch number: 111613) with a concentration of 0.1µM; and the fourth group was the combination group of IN10018 (5 µM) and Docetaxel (0.1µM). The drugs were mixed and cultured in a 5 % CO2 incubator at 37°C for 48 hours.
After 48 hours of drug action, the cells were observed and photographed under a microscope. The photos were saved. Then the cells were collected for flow cytometry, and the cells were washed twice with flow buffer (PBS + 2% FBS). 0.5 µl of AF647 anti-calreticulin antibody (abcam, catalog number: ab196159, batch number: CR33676773) was added to each well, and fully mixed. The cells were incubated at 4 °C for 20 minutes in the dark. […] The mixture was incubated at room temperature in the dark for 15 minutes, and then analyzed on a flow cytometer.

[1] = tested on: mouse breast cancer 4T1 cells; test: Eribulin and IN10018: microscopy and CRT/Annexin-V/PI and GRP94 flow cytometry; format: cell-based; details: 48 hours, IN10018 5 µM, Eribulin 0.15 µM or 0.45 µM, alone or combined
Procedure: (§1) 4T1 cells were cultured in monolayer in vitro under the following conditions: RPMI-1640 medium with 10% fetal bovine serum, 37 °C, 5% CO2. Trypsin was used for routine digestion and passage treatment two to three times a week. When the cells were in the exponential growth phase and the adherent confluence reached 80%-90%, the cells were harvested and plated.
4T1 cells were digested with trypsin and then collected and counted. Based on the counting results, the cells were diluted with RPMI-1640+10% FBS to a concentration of 50,000 cells per milliliter. Then the cells were plated in 12-well cell culture plates, with 2 ml of cell suspension per well, i.e., 100,000 cells. After plating, the cells were cultured in a 37°C and 5% CO2 incubator.
(§2) After 24 hours of plating, test compounds IN10018 and Eribulin were added to different wells, respectively.
(§3) After 48 hours of drug action, the cells were photographed using a microscope, and then trypsinized and collected for flow cytometry staining.
The cells were washed twice with flow buffer (DPBS + 2% FBS), and each group of cells was divided into two equal parts. In one part, 0.5 µL of AF647 Anti-Calreticulin Antibody was added to each well, and mixed. The cells were incubated at 4°C in the dark for 20 min. […]
(§4) After the assay, the cell positive rate was analyzed by Flowjo (V10) software.

[2] = tested on: human ovarian epithelial carcinoma TOV-21G cells; test: Eribulin and IN10018: microscopy and CRT/Annexin-V/PI flow cytometry; format: cell-based; details: 48 hours, IN10018 10 µM, Eribulin 0.045 µM, alone or combined
Procedure: as §1, with “ID8 cells and TOV-21G” for “4T1”, “vitro. ID8 cells were cultured in DMEM medium with 10% fetal bovine serum. TOV-21G cells were cultured in” for “vitro under the following conditions:”, “serum. Both were cultured in a” for “serum,”, “CO2 incubator.” for “CO2.”
(§5) ID8 cells and TOV-21G cells were digested with trypsin and then collected and counted. Based on the counting results, the cells were diluted with the corresponding complete culture medium to a concentration of 50,000 cells per milliliter. Then the cells were plated in 12-well cell culture plates, with 2 ml of cell suspension per well, i.e., 100,000 cells.
(§6) After plating, the cells were cultured in a 37°C and 5% CO2 incubator.
as §2, §3
(§7) The cells were washed twice with flow buffer (DPBS + 2% FBS). 0.5 µL of AF647 Anti-Calreticulin Antibody was added to each well, and mixed. The cells were incubated at 4°C in the dark for 20 min. After washing once with flow buffer, 195 µL of Annexin-V-FITC binding solution was added, and the cells were gently mixed well. 5 µL of Annexin-V-FITC antibody was added. After further mixing, 10 µL of PI dye was added and mixed well. The cells were incubated at room temperature in the dark for 15 min. The cells were then subjected to flow cytometry.
as §4

[3] = tested on: mouse ovarian epithelial carcinoma ID8 cells; test: as above; format: cell-based; details: 48 hours, IN10018 10 µM, Eribulin 0.045 µM, alone or combined
Procedure: as §1, with “ID8 cells and TOV-21G” for “4T1”, “vitro. ID8 cells were cultured in DMEM medium with 10% fetal bovine serum. TOV-21G cells were cultured in” for “vitro under the following conditions:”, “serum. Both were cultured in a” for “serum,”, “CO2 incubator.” for “CO2.”
as §5, §6, §2, §3, §7, §4

breast cancer 4T1 cells = test: Subcutaneous allograft tumor model of breast cancer 4T1 cells in BALB/c mice; format: in vivo
Source text: Mice: Female BALB/c mice aged 6-8 weeks were purchased from SHANGHAI SLAC LABORATORY ANIMAL CO. LTD. The assay began after the animals were adapted to the assay environment upon arrival. The animals were kept in IVC (independent ventilation system) cages (5 per cage) in an SPF animal room. All cages, padding and drinking water must be sterilized before use. All assay personnel should wear protective clothing and latex gloves when operating in the animal room. Cages, feed and drinking water were replaced twice a week. The feeding environment and lighting conditions were as follows: • Temperature: 20-26 °C • Humidity: 40-70% • Lighting period: 12 hours light, 12 hours no light • Cages: Made of polycarbonate, 300 mm × 180 mm × 150 mm. The padding was corn cobs, which was replaced twice a week. • Food: The assay animals had free access to food (dry pelleted food sterilized by irradiation) throughout the assay period. • Drinking water: Assay animals were free to drink sterile water. • Cage identification: The animal information card for each cage should indicate the number of animals in the cage, gender, strain, receipt date, dosing regimen, assay number, group and start date of the assay. • Animal identification: Assay animals were identified with ear tags.
Breast cancer cell 4T1 (source: Nanjing Cobioer Biotechnology Co., Ltd., catalog number: CBP60352) was maintained and passaged by INXMED (Nanjing) Co., Ltd. The cells were cultured in a monolayer in vitro in RPMI-1640 medium with 10% fetal bovine serum in a 37 °C, 5% CO2 incubator. Trypsin-EDTA was used for routine digestion and passage treatment two to three times a week. When the cells were in the exponential growth phase and the adherent confluence reached 80%-90%, the cells were harvested and plated.
0.1 mL of cell suspension containing 2 x 10^5 cells was subcutaneously inoculated on the right back of each mouse. When the tumor volume reached ~52 mm^3 (10th day after cell inoculation), the mice were randomly divided into groups for drug administration according to the tumor volume. Table 9. Dosing regimen of the test substance in 4T1 mouse transplant tumor model
The formulation and any modifications of this assay protocol had been assessed and approved by the IACUC of ArrayBridge. The use and welfare of assay animals were carried out in accordance with AAALAC regulations. The health status and mortality of animals were monitored daily, with routine checks including observation of tumor growth and the impact of drug treatment on the animals' daily behavior, such as activity, food and water intake (estimated by visual inspection), changes in body weight, physical signs, or any other abnormalities. The number of animal deaths and side effects in each group were recorded based on the number of animals in each group.
If the animal's health condition continued to deteriorate, or if the tumor volume exceeded 3,000 mm^3, or there was a serious disease or pain, euthanasia should be carried out. In the following cases, the veterinarian was notified and euthanasia was performed: obvious weight loss, i.e., weight loss greater than 20%; inability to freely eat and drink; the average tumor volume of the control group reached 2000 mm^3, the assay was terminated.
Tumor diameters were measured three times a week using calipers. The tumor volume was calculated using the formula: V = 0.5 × a × b^2, where a and b represent the long and short diameters of the tumor, respectively.
Based on the tumor volume on the first day after grouping, the tumor growth inhibition rate TGI (%) was calculated according to the following formula: TGI (%) = [1 - (average tumor volume of a treatment group - average tumor volume of the treatment group at the beginning of treatment) / (average tumor volume of the solvent control group - average tumor volume of the solvent control group at the beginning of treatment)] × 100%. […]

[4] = tested on: mouse colon cancer CT26 cells; test: Docetaxel/Eribulin/Paclitaxel and Defactinib: microscopy and CRT/Annexin-V/PI flow cytometry; format: cell-based; details: 48 hours, Defactinib 5 µM, Docetaxel 0.3 µM, Eribulin 0.3 µM, Paclitaxel 6 µM, alone or combined with Defactinib
Procedure: as §1, with “CT26” for “4T1”, “37°C,” for “37 °C,”
as §5, with “CT26” for “ID8 cells and TOV-21G”, “trypsin,” for “trypsin”, “then the cells were” for “then”
as §6
After 24 hours of plating, the test compounds Docetaxel, Eribulin, Paclitaxel and Defactinib were added to different wells, respectively.
as §3
as §7, with “mixed well.” for “mixed.”
as §4

With `COc1cc(C(=O)NC2CCN(C)CC2)c(F)cc1Nc1ncc(C(F)(F)F)c(Oc2cccc3c2C(=O)N(C)C3)n1` [IN10018] the “cell status under a microscope” value (colon cancer CT26 cells) was “good”, the “cell status (cell death / cell viability) under a microscope” value [1] was “better” and the “cell status (cell death / cell viability) under a microscope” value [2] was “better”. For the same molecule, the “cell status (cell death / cell viability) under a microscope” value [3] was “better”.
In the case of `Cc1c(C=Cc2cc(CNC(C)(CO)C(=O)O)ccc2C(F)(F)F)cccc1-c1ccc2c(c1)OCCO2` (stereo not drawn) [MAX10181], the “Tumor volume on day 0” value (breast cancer 4T1 cells; baseline at grouping (10th day after inoculation), mean ± standard error, 6 mice per group) is reported as 51.7 ± 13.9 mm^3, the TGI (breast cancer 4T1 cells; day 21 after administration, vs control group, DTX 10 mg/kg i.p. BIW, IN10018 25 mg/kg p.o. QD, MAX10181 120 mg/kg p.o. BID) is reported as -3.7% and the “Tumor volume on day 21” value (breast cancer 4T1 cells; day 21 after administration, DTX 10 mg/kg i.p. BIW, IN10018 25 mg/kg p.o. QD, MAX10181 120 mg/kg p.o. BID, mean ± standard error) is reported as 2205.7 ± 912.7 mm^3. The death of animals (breast cancer 4T1 cells; entire dosing cycle (21 days), 6 mice per group, deaths following diarrhea, MAX10181 120 mg/kg p.o. BID, DTX 10 mg/kg i.p. BIW) was “one”.
`CC(=O)O[C@H]1C(=O)[C@@]2(C)[C@H]([C@H](OC(=O)c3ccccc3)[C@]3(O)C[C@H](OC(=O)[C@H](O)[C@@H](NC(=O)c4ccccc4)c4ccccc4)C(C)=C1C3(C)C)[C@]1(OC(C)=O)CO[C@@H]1C[C@@H]2O` [Paclitaxel] was tested, and the “cell status (cell death) under a microscope” value [4] was “obvious”.
